This passage reports IC50 results from US20090131468A1, “Bis-(Sulfonylamino) Derivatives in Therapy 065” (AstraZeneca AB, priority 2007, published 2009).

pIC50: −log10 of the molar value.

This experiment concerns the target T1, human mPGES-1 (Homo sapiens, UniProt O14684).
T1 sequence (O14684 1-152): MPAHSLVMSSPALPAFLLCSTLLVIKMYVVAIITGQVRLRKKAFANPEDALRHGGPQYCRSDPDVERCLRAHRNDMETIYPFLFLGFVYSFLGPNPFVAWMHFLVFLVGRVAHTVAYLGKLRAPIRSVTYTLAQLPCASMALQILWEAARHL
The experiment in a line: Microsomal prostaglandin E synthase biochemical assay. The settings on record: microsome preparation containing human mPGES-1; PGH2 10.8 μM, GSH 2.5 mM, pH 6.8; PGE2 quantified by HTRF; average of at least n=2. How it is done: Compounds were tested as inhibitors of microsomal prostaglandin E synthase activity in microsomal prostaglandin E synthase assays and whole cell assays. These assays measure prostaglandin E2 (PGE2) synthesis which is taken as a measure of prostaglandin E synthase activity. Microsomal prostaglandin E synthase biochemical assays used microsomal prostaglandin E synthase-1 in microsomal preparations. The source of the microsomes can be for example interleukin-1β-stimulated human A549 cells (which express human mPGES-1) or Sf9 cells transfected with plasmids encoding human mPGES-1 cDNA.
A solution of test compound was added to a diluted microsome preparation containing human mPGES-1 and pre-incubated for 15 minutes in potassium phosphate buffer pH 6.8 with cofactor glutathione (GSH). Corresponding solutions without test compound were used as positive controls, and corresponding solutions without test compound and without microsomes were used as negative controls. The enzymatic reaction was then started by addition of the substrate PGH2 in an organic solution (dry acetonitrile).
The reaction was stopped after one minute by adding an acidic solution (pH 1.9) of ferric chloride and citrate (final concentrations 7 mM and 47 mM respectively), by which the PGH2 was sequestered (the PGH2 is reduced to mainly 12-hydroxy heptadecatrineoic acid (12-HHT) which is not detected by the subsequent PGE2 detection step). The resulting solution was then pH neutralized by addition of potassium phosphate buffer, prior to diluting an aliquot of the resulting solution in a weak potassium phosphate buffer (50 mM, pH 6.8) containing 0.2% BSA (w/v). […] The PGE2 formed was quantified by use of a commercial HTRF based kit (catalogue #62PG2PEC or #62P2APEC from Cisbio International). 100% activity was defined as the PGE2 production in positive controls subtracted by the PGE2 production in the negative controls. IC50 values were then determined using standard procedures.
A general note: TR-FRET usually uses a lanthanide donor and a delayed reading to cut background.
Turning to `NS(=O)(=O)c1ccccc1S(=O)(=O)NC(=O)c1ccc(COCCC(F)(F)F)cc1` [Example 97, N-(2-Sulfamoylphenylsulfonyl)-4-((3,3,3-trifluoropropoxy)methyl)benzamide], the pIC50 – broadly, −log10 of the IC50, conventionally taken in molar units – was 5.29.
Next, `Cc1cc(C(=O)NS(=O)(=O)c2ccccc2S(N)(=O)=O)ccc1Br` [Example 12, 4-Bromo-3-methyl-N-(2-sulfamoylphenyl)sulfonyl-benzamide]: 6.77.
Molecule `Cn1c(C(=O)NS(=O)(=O)c2ccccc2S(N)(=O)=O)cc2ccccc21` [Example 33, 1-Methyl-N-(2-sulfamoylphenyl)sulfonyl-indole-2-carboxamide] showed a negative logarithm of the IC50 (pIC50) of 5.34.
The same measure for `NS(=O)(=O)c1ccccc1S(=O)(=O)NC(=O)c1ccc2oc(-c3ccccc3)cc2c1` [Example 25, 2-Phenyl-N-(2-sulfamoylphenyl)sulfonyl-benzofuran-5-carboxamide]: 7.70.
The same measure for `NS(=O)(=O)c1ccccc1S(=O)(=O)NC(=O)c1ccc(-c2ccccc2)s1` [Example 35, 5-Phenyl-N-(2-sulfamoylphenyl)sulfonyl-thiophene-2-carboxamide]: 6.28; for `NS(=O)(=O)c1ccccc1S(=O)(=O)NC(=O)c1cccc(C#CC2CCCC2)c1` [Example 66, 3-(Cyclopentylethynyl)-N-(2-sulfamoylphenylsulfonyl)benzamide]: 6.66.
Next, `NS(=O)(=O)c1ccccc1S(=O)(=O)NC(=O)c1cnc(C#Cc2ccc(Cl)cc2)nc1` [Example 102, 2-((4-chlorophenyl)ethynyl)-N-(2-sulfamoylphenylsulfonyl)pyrimidine-5-carboxamide]: 7.28.
Molecule `COc1c(-c2cc3ccccc3o2)ccc(C(=O)NS(=O)(=O)c2ccccc2S(N)(=O)=O)c1F` [Example 87, 4-(Benzofuran-2-yl)-2-fluoro-3-methoxy-N-(2-sulfamoylphenylsulfonyl)benzamide] gave a pIC50 of 7.80.
`NS(=O)(=O)c1ccccc1S(=O)(=O)NC(=O)c1cccc(OC(F)F)c1` [Example 19, 3-(Difluoromethoxy)-N-(2-sulfamoylphenyl)sulfonyl-benzamide] gave a negative-log IC50 (pIC50) of 5.06.
Turning to `NS(=O)(=O)c1ccccc1S(=O)(=O)NC(=O)c1c(F)cc(C#CC2CCCC2)cc1F` [Example 153, 4-(Cyclopentylethynyl)-2,6-difluoro-N-(2-sulfamoylphenylsulfonyl)benzamide], the pIC50 is 6.48.
Next, `NS(=O)(=O)c1ccccc1S(=O)(=O)NC(=O)c1ccc(F)c(Br)c1` [Example 20, 3-Bromo-4-fluoro-N-(2-sulfamoylphenyl)sulfonyl-benzamide]: 6.23; `CCCc1c(C(=O)NS(=O)(=O)c2ccccc2S(N)(=O)=O)cnn1-c1cc(Cl)cc(Cl)c1` [Example 38, 1-(3,5-Dichlorophenyl)-5-propyl-N-(2-sulfamoylphenyl)sulfonyl-pyrazole-4-carboxamide]: 5.82; `NS(=O)(=O)c1ccccc1S(=O)(=O)NC(=O)c1ccc(C#CC2CC2)c2c1OC(F)(F)O2` [Example 159, 7-(Cyclopropylethynyl)-2,2-difluoro-N-(2-sulfamoylphenylsulfonyl)-benzo[d][1,3]dioxole-4-carboxamide]: 7.20.
Next, `CC(C)(C)c1ccc(C(=O)NS(=O)(=O)c2ccccc2S(N)(=O)=O)cc1` [Example 32, N-(2-Sulfamoylphenyl)sulfonyl-4-tert-butyl-benzamide]: 5.82.
Next, `NS(=O)(=O)c1ccccc1S(=O)(=O)NC(=O)c1ccc(-c2nc3ccccc3s2)cc1` [Example 5, 4-Benzothiazol-2-yl-N-(2-sulfamoylphenyl)sulfonyl-benzamide]: 7.64; `NS(=O)(=O)c1ccccc1S(=O)(=O)NC(=O)c1ccc(Cl)cc1F` [Example 23, 4-Chloro-2-fluoro-N-(2-sulfamoylphenyl)sulfonyl-benzamide]: 6.00.
The molecule `NS(=O)(=O)c1ccccc1S(=O)(=O)NC(=O)c1ccc2[nH]c(Cc3ccccc3)cc2c1` [Example 158, 2-Benzyl-N-(2-sulfamoylphenylsulfonyl)-1H-indole-5-carboxamide] showed a negative logarithm of the IC50 (pIC50) of 6.24.
The same measure for `NS(=O)(=O)c1ccccc1S(=O)(=O)NC(=O)c1ccc(C#Cc2ccccc2)nc1` [Example 55, 6-(Phenylethynyl)-N-(2-sulfamoylphenylsulfonyl)nicotinamide]: 6.92; for `NS(=O)(=O)c1ccccc1S(=O)(=O)NC(=O)c1ccc(-c2nc3cnccc3o2)cc1` [Example 6, 4-(7-Oxa-3,9-diazabicyclo [4.3.0]nona-2,4,8,10-tetraen-8-yl)-N-(2-sulfamoylphenyl)-sulfonyl-benzamide]: 5.96.
Consider `NS(=O)(=O)c1ccccc1S(=O)(=O)NC(=O)c1ccc(Br)cc1O` [Example 82, 4-Bromo-2-hydroxy-N-(2-sulfamoylphenylsulfonyl)benzamide], for which the pIC50 was 6.27.
With `CC(C)(O)C#Cc1cc(C(=O)NS(=O)(=O)c2ccccc2S(N)(=O)=O)ccc1-c1cc2ccccc2o1` [Example 154, 4-(Benzofuran-2-yl)-3-(3-hydroxy-3-methylbut-1-ynyl)-N-(2-sulfamoylphenyl-sulfonyl)benzamide], the negative-log IC50 (pIC50) is 8.00.
The same measure for `CC(C)(C)C#Cc1ccc(C(=O)NS(=O)(=O)c2ccccc2S(N)(=O)=O)nc1` [Example 89, 5-(3,3-Dimethylbut-1-ynyl)-N-(2-sulfamoylphenylsulfonyl)picolinamide]: 5.92; for `COc1c(C#CC2CCCC2)ccc(C(=O)NS(=O)(=O)c2ccccc2S(N)(=O)=O)c1F` [Example 86, 4-(Cyclopentylethynyl)-2-fluoro-3-methoxy-N-(2-sulfamoylphenylsulfonyl)benzamide]: 7.15.
The same measure for `NS(=O)(=O)c1ccccc1S(=O)(=O)NC(=O)c1ccc2oc(C3(O)CCCC3)cc2c1` [Example 77, 2-(1-Hydroxycyclopentyl)-N-(2-sulfamoylphenylsulfonyl)benzofuran-5-carboxamide]: 6.14; for `CC(OC(C)(C)C)c1cc2cc(C(=O)NS(=O)(=O)c3ccccc3S(N)(=O)=O)ccc2o1` (centres unmarked) [Example 121, 2-(1-tert-Butoxyethyl)-N-(2-sulfamoylphenylsulfonyl)benzofuran-5-carboxamide]: 5.68.
Molecule `NS(=O)(=O)c1ccccc1S(=O)(=O)NC(=O)c1ccc(-c2cc3ccccc3o2)nc1` [Example 117, 6-(Benzofuran-2-yl)-N-(2-sulfamoylphenylsulfonyl)nicotinamide] gave a negative logarithm of the IC50 (pIC50) of 6.74.
`Cc1cc(-c2cc3ccccc3o2)cc(C)c1C(=O)NS(=O)(=O)c1ccccc1S(N)(=O)=O` [Example 52, 4-(Benzofuran-2-yl)-2,6-dimethyl-N-(2-sulfamoylphenylsulfonyl)benzamide]: the pIC50 was 6.35.
In turn, `CC(C)Oc1cc(C(=O)NS(=O)(=O)c2ccccc2S(N)(=O)=O)cnc1C#CC1CCCCC1` [Example 144, 6-(Cyclohexylethynyl)-5-isopropoxy-N-(2-sulfamoylphenylsulfonyl)nicotinamide] showed a pIC50 of 7.96.
With `NS(=O)(=O)c1ccccc1S(=O)(=O)NC(=O)c1ccc(-c2cc3ccccc3o2)cc1` [Example 3, 4-Benzofuran-2-yl-N-(2-sulfamoylphenyl)sulfonyl-benzamide], the negative logarithm of the IC50 (pIC50) was 8.24.
The molecule `COc1cc(C(=O)NS(=O)(=O)c2ccccc2S(N)(=O)=O)cnc1C#CC1CCCC1` [Example 137, 6-(Cyclopentylethynyl)-5-methoxy-N-(2-sulfamoylphenylsulfonyl)nicotinamide] had a negative logarithm of the IC50 (pIC50) of 7.70.
As for `CC(C)(O)C#Cc1cc(C(=O)NS(=O)(=O)c2ccccc2S(N)(=O)=O)ccc1OCc1ccccc1` [Example 156, 4-(Benzyloxy)-3-(3-hydroxy-3-methylbut-1-ynyl)-N-(2-sulfamoylphenylsulfonyl)-benzamide], the pIC50 was 6.96.
`COc1cc(C(=O)NS(=O)(=O)c2ccccc2S(N)(=O)=O)cc(OC)c1-c1cc2ccccc2o1` [Example 47, 4-(Benzofuran-2-yl)-3,5-dimethoxy-N-(2-sulfamoylphenylsulfonyl)benzamide] gave a pIC50 of 6.85.
For the molecule `C=C(C)C#Cc1ccc(C(=O)NS(=O)(=O)c2ccccc2S(N)(=O)=O)cc1` [Example 54, 4-(3-Methylbut-3-en-1-ynyl)-N-(2-sulfamoylphenylsulfonyl)benzamide], the negative logarithm of the IC50 (pIC50) was 7.21.
For `NS(=O)(=O)c1ccccc1S(=O)(=O)NC(=O)c1ccc(C#Cc2ccccn2)nc1` [Example 94, 6-(Pyridin-2-ylethynyl)-N-(2-sulfamoylphenylsulfonyl)nicotinamide], the negative-log IC50 (pIC50) was 4.89.
Consider `Cc1nc(-c2cccc(C(F)(F)F)c2)sc1C(=O)NS(=O)(=O)c1ccccc1S(N)(=O)=O` [Example 22, 4-Methyl-N-(2-sulfamoylphenyl)sulfonyl-2-[3-(trifluoromethyl)phenyl]1,3-thiazole-5-carboxamide], for which the negative logarithm of the IC50 (pIC50) is 7.52.
